Source: ChEMBL document CHEMBL3608284, “C4 phenyl aporphines with selective h5-HT(2B) receptor affinity” (Bioorg Med Chem Lett, 2015)

How the values were obtained:
[1] = target: T1, 5-hydroxytryptamine receptor 1A (Homo sapiens) (UniProt P08908); test: Displacement of [3H]-8-OH-DPAT from 5HT1A receptor (unknown origin) at 10 uM
T1 sequence (whole entry): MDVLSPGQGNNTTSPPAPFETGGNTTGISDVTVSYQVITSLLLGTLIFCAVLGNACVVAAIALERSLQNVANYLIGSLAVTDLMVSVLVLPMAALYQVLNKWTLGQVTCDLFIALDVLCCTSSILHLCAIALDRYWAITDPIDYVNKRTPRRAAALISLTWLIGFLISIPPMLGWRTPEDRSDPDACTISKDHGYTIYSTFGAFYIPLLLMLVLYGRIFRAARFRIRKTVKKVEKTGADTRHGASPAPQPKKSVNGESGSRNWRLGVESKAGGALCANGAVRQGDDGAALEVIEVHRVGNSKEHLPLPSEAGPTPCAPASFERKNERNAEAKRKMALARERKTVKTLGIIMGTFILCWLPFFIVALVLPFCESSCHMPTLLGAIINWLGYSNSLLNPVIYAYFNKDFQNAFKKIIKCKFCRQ

[2] = target: T2, 5-hydroxytryptamine receptor 1B (Homo sapiens, UniProt P28222); test: Displacement of [3H]GR125743 from 5HT1B receptor (unknown origin) at 10 uM
T2 sequence (P28222 whole entry): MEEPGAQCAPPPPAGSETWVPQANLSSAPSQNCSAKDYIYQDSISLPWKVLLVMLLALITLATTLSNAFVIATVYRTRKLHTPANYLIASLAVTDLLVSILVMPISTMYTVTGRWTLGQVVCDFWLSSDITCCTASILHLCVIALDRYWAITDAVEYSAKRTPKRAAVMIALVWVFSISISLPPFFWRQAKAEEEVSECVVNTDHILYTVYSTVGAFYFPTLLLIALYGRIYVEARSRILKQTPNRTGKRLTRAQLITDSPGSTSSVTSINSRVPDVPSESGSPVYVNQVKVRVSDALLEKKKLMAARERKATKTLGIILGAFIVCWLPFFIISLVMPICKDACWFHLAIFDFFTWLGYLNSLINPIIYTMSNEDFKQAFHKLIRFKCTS

[3] = target: 5-hydroxytryptamine receptor 1D (Homo sapiens) (UniProt P28221); test: Displacement of [3H]GR125743 from 5HT1D receptor (unknown origin) at 10 uM
Chain of 5-hydroxytryptamine receptor 1D (Homo sapiens) (P28221 whole entry): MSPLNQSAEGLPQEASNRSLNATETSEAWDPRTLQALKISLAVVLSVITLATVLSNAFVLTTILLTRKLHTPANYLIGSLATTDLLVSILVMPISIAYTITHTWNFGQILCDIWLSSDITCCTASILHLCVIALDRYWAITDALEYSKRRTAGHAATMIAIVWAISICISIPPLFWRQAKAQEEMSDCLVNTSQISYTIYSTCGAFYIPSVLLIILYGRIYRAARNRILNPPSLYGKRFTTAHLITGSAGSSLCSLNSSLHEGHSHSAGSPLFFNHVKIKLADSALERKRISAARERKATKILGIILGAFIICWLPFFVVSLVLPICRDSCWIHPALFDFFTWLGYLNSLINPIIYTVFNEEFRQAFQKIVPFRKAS

[4] = target: 5-hydroxytryptamine receptor 1E (Homo sapiens) (UniProt P28566); test: Displacement of [3H]5HT from 5HT1E receptor (unknown origin) at 10 uM
Chain of 5-hydroxytryptamine receptor 1E (Homo sapiens) (P28566 whole entry): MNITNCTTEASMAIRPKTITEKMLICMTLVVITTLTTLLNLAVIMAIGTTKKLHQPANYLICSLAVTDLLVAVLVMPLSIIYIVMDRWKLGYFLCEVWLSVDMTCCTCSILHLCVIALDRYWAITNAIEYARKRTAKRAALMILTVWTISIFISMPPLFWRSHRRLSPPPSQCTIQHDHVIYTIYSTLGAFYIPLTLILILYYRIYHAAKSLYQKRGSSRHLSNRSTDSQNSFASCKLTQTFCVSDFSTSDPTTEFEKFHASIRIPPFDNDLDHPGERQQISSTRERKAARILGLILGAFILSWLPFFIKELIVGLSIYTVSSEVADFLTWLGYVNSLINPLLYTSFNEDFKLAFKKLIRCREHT

[5] = target: 5-hydroxytryptamine receptor 2A (Homo sapiens) (UniProt P28223); test: Displacement of [3H]ketanserin from 5HT2A receptor (unknown origin) at 10 uM
Chain of 5-hydroxytryptamine receptor 2A (Homo sapiens) (P28223 whole entry): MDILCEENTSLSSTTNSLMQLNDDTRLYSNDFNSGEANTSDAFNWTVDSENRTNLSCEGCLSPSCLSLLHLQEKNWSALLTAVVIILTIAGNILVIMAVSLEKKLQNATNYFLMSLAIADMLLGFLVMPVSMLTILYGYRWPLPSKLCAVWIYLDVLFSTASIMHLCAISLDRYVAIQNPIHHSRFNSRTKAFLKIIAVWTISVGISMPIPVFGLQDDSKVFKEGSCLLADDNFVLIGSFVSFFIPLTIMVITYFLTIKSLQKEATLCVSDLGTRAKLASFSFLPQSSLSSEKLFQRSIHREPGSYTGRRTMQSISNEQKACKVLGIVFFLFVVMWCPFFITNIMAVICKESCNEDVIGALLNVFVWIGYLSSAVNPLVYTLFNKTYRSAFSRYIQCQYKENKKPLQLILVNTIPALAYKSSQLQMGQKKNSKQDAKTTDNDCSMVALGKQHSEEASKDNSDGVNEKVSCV

[6] = target: T3, 5-hydroxytryptamine receptor 2B (Homo sapiens, UniProt P41595); test: Displacement of [3H]LSD from 5HT2B receptor (unknown origin) at 10 uM
T3 sequence (P41595 whole entry): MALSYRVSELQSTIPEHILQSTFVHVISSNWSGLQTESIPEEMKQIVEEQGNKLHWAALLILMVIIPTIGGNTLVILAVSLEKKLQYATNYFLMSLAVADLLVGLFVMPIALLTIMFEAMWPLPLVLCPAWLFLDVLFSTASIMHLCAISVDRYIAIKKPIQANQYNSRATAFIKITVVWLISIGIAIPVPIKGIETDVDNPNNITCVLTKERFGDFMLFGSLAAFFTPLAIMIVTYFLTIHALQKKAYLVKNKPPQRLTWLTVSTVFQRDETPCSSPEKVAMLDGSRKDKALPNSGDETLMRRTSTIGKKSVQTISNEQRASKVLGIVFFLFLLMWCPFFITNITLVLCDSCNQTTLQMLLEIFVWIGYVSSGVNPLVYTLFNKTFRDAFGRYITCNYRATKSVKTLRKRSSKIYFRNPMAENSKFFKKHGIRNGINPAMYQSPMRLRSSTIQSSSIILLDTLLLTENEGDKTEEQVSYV

[7] = target: T4, 5-hydroxytryptamine receptor 2C (Homo sapiens) (UniProt P28335); test: Displacement of [3H]mesulergine from 5HT2C receptor (unknown origin) at 10 uM
T4 sequence (whole entry): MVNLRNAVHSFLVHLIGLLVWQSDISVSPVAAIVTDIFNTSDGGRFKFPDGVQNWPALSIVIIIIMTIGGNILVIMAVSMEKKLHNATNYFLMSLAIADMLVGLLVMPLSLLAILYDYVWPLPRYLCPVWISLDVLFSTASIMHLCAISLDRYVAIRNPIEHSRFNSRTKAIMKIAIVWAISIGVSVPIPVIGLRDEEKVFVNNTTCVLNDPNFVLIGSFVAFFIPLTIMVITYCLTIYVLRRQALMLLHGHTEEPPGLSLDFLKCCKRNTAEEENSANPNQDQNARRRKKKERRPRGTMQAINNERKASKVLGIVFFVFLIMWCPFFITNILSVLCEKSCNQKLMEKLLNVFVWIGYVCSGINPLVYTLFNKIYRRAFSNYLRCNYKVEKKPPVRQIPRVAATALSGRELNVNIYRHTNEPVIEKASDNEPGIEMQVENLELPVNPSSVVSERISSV

[8] = target: T5, 5-hydroxytryptamine receptor 3A (Homo sapiens) (UniProt P46098); test: Displacement of [3H]LY278584 from 5HT3 receptor (unknown origin) at 10 uM
T5 sequence (whole entry): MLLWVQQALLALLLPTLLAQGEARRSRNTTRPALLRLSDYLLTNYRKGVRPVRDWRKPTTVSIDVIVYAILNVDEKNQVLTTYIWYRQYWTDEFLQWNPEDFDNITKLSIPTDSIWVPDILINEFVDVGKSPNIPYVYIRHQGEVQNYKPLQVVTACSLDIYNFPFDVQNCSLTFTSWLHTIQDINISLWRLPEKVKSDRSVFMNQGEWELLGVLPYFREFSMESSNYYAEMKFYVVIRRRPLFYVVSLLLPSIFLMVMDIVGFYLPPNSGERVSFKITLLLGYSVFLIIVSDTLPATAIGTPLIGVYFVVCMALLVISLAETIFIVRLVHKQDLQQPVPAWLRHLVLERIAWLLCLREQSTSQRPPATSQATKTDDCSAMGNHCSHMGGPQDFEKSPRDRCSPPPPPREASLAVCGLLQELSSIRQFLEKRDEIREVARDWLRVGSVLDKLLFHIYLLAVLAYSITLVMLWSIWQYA

[9] = target: 5-hydroxytryptamine receptor 5A (Homo sapiens) (UniProt P47898); test: Displacement of [3H]LSD from 5HT5A receptor (unknown origin) at 10 uM
Chain of 5-hydroxytryptamine receptor 5A (Homo sapiens) (P47898 whole entry): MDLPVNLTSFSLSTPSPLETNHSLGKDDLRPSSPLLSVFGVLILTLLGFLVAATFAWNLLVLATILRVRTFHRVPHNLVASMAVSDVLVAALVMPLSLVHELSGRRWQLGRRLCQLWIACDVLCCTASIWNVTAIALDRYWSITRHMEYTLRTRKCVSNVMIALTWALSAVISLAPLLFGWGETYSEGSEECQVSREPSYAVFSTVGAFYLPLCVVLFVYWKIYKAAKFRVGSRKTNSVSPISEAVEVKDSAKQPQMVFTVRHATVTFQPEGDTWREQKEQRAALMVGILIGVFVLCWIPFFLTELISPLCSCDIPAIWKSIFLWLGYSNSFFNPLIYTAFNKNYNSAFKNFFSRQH

[10] = target: 5-hydroxytryptamine receptor 7 (Homo sapiens) (UniProt P34969); test: Displacement of [3H]LSD from 5HT7 receptor (unknown origin) at 10 uM
Chain of 5-hydroxytryptamine receptor 7 (Homo sapiens) (P34969 whole entry): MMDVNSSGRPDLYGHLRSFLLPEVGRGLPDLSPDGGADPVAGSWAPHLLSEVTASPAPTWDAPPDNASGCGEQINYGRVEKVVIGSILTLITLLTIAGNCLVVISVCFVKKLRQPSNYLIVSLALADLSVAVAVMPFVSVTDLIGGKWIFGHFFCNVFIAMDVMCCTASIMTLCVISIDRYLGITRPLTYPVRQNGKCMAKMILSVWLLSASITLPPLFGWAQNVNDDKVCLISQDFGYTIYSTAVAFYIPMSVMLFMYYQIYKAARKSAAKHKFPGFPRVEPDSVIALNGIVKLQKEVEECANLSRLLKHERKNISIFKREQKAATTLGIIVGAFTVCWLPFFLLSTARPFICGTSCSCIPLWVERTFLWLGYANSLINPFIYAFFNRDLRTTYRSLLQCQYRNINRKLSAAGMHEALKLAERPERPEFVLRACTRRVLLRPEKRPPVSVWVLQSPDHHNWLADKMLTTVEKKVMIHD

[11] = target: T3, 5-hydroxytryptamine receptor 2B; test: Displacement of [3H]LSD from 5HT2B receptor (unknown origin)
[12] = target: T2, 5-hydroxytryptamine receptor 1B; test: Displacement of [3H]GR125743 from 5HT1B receptor (unknown origin)

CCOc1c(OC)cc2c3c1-c1cc4c(cc1CC3N(C)CC2c1ccccc1)OCO4 (stereo not given)
inhibition [1]: -0.9%
inhibition [2]: 20.6%
inhibition [3]: 29.7%
inhibition [4]: 10.3%
inhibition [5]: 40.1%
inhibition [6]: 83.3%
inhibition [7]: 13.5%
inhibition [8]: -2.7%
inhibition [9]: -7.6%
inhibition [10]: 26%
Ki [11]: 209 nM

CCN1CC(c2ccccc2)c2cc(OC)c(OC)c3c2C1Cc1cc2c(cc1-3)OCO2 (stereo not given)
inhibition [1]: 3.3%
inhibition [2]: 23.6%
inhibition [3]: 27.4%
inhibition [4]: 5%
inhibition [5]: 12.8%
inhibition [6]: 88.4%
inhibition [7]: -1.6%
inhibition [8]: -4.1%
inhibition [10]: 8.9%
Ki [11]: 419 nM

CCCCCCOc1c(OC)cc2c3c1-c1cc4c(cc1CC3N(C)CC2c1ccccc1)OCO4 (stereo not given)
inhibition [2]: 4.3%
inhibition [3]: 13.4%
inhibition [4]: 2.4%
inhibition [5]: 19.9%
inhibition [6]: 63.6%
inhibition [7]: 49.3%
inhibition [8]: 0.8%
inhibition [9]: -6.2%
Ki [11]: 663 nM

COc1cc2c3c(c1O)-c1cc4c(cc1CC3N(C)CC2c1ccccc1)OCO4 (stereo not given)
inhibition [1]: 24.2%
inhibition [2]: -5.2%
inhibition [3]: 15.8%
inhibition [4]: 11%
inhibition [5]: 29.2%
inhibition [6]: 50.3%
inhibition [7]: -2.3%
inhibition [8]: 4.1%
inhibition [9]: 1.8%
inhibition [10]: 31.3%
Ki [11]: 715 nM

CCCCOc1c(OC)cc2c3c1-c1cc4c(cc1CC3N(C)CC2c1ccccc1)OCO4 (stereo not given)
inhibition [1]: 18.4%
inhibition [2]: 41.4%
inhibition [3]: 24%
inhibition [4]: 7.3%
inhibition [5]: 40.9%
inhibition [6]: 76.1%
inhibition [7]: 48%
inhibition [8]: 11.6%
inhibition [9]: 17.6%
inhibition [10]: -5.1%
Ki [11]: 601 nM

CCCOc1c(OC)cc2c3c1-c1cc4c(cc1CC3N(C)CC2c1ccccc1)OCO4 (stereo not given)
inhibition [1]: 27%
inhibition [2]: 51.7%
inhibition [3]: 22.4%
inhibition [4]: 2.1%
inhibition [5]: 32.3%
inhibition [6]: 84%
inhibition [7]: 13.1%
inhibition [8]: 0.7%
inhibition [9]: 5.2%
inhibition [10]: 8.6%
Ki [12]: 1610 nM
Ki [11]: 307 nM

C=CCOc1c(OC)cc2c3c1-c1cc4c(cc1CC3N(C)CC2c1ccccc1)OCO4 (stereo not given)
inhibition [1]: 19.2%
inhibition [2]: 19.4%
inhibition [3]: 22.6%
inhibition [4]: 3.3%
inhibition [5]: 47.8%
inhibition [6]: 72.1%
inhibition [7]: 28.8%
inhibition [8]: 8.3%
inhibition [9]: -9.8%
inhibition [10]: 24.7%
Ki [11]: 416 nM

COc1cc2c3c(c1OCC1CC1)-c1cc4c(cc1CC3N(C)CC2c1ccccc1)OCO4 (stereo not given)
inhibition [1]: -9.8%
inhibition [2]: 60.2%
inhibition [3]: 31.9%
inhibition [4]: 27.4%
inhibition [5]: 42.9%
inhibition [6]: 77.1%
inhibition [7]: 32.4%
inhibition [8]: 7.7%
inhibition [9]: 5.2%
inhibition [10]: 6.9%
Ki [12]: 2470 nM
Ki [11]: 299 nM

COc1cc2c3c(c1OC)-c1cc4c(cc1CC3N(CC1CC1)CC2c1ccccc1)OCO4 (stereo not given)
inhibition [1]: 13.3%
inhibition [2]: 16.2%
inhibition [3]: 22.4%
inhibition [4]: 3.5%
inhibition [5]: 9.6%
inhibition [6]: 73.7%
inhibition [7]: 9.4%
inhibition [10]: 18.3%
Ki [11]: 1430 nM

COc1cc2c3c(c1OCc1ccc(Br)cc1)-c1cc4c(cc1CC3N(C)CC2c1ccccc1)OCO4 (stereo not given)
inhibition [1]: 25.9%
inhibition [2]: 2.1%
inhibition [3]: 9.8%
inhibition [4]: -0.1%
inhibition [5]: 15.8%
inhibition [6]: 24.4%
inhibition [7]: -6.6%
inhibition [8]: -7.4%
inhibition [9]: -9.3%
